According to patent US20230075856A1, “CYCLIC SULFAMIDE COMPOUNDS FOR TREATMENT OF HBV” (Assembly Biosciences, Inc., priority 2018, published 2023):
pEC50: −log10 of the molar value. Where two headings read alike, the source gives them in different places.

System: HBV viral load production from HepAD38 cells
Assay: Viral production from HepAD38 cells: viral load in supernatant by qPCR of the HBV core sequence
Type: cell-based
Conditions: 5 days incubation, qPCR of supernatant HBV DNA vs DMSO control, read-out: viral load lowering EC50 (Activity)
Procedure, shortened: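 HepAD38 cells seeded at 50,000/well in tetracycline-free medium with 2% FBS, treated with compounds (final top concentration 10 μM) for 5 days at 37 °C. Supernatant HBV DNA quantified by TaqMan qPCR of core sequence against HBV DNA standards, relative to DMSO controls; EC50 by four-parameter logistic fit.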

[1] = Hepatitis B virus, HePAD38, 120 h

Row | SMILES | pEC50 [1] | pEC50
1 | CN1C(C(=O)Nc2ccc(F)c(Cl)c2)CC(C(=O)NCc2nc(C(F)(F)F)cs2)NS1(=O)=O (single isomer, unassigned) [1202-ISOMER-A, N3-(3-chloro-4-fluoro-phenyl)-2-methyl-1,1-dioxo-N5-[[4-(trifluoromethyl)thiazol-2-yl]methyl]-1,2,6-thiadiazinane-3,5-dicarboxamide] | 5.00 to 7.00 | 
2 | CN1C(C(=O)Nc2ccc(F)c(Cl)c2)CC(C(=O)NCc2nc(C(F)(F)F)cs2)NS1(=O)=O (single isomer, unassigned) [1202-ISOMER-B, N3-(3-chloro-4-fluoro-phenyl)-2-methyl-1,1-dioxo-N5-[[4-(trifluoromethyl)thiazol-2-yl]methyl]-1,2,6-thiadiazinane-3,5-dicarboxamide] |  | > 7.30
3 | COC(=O)N1CCC(NC(=O)C2CC(C(=O)Nc3ccc(F)c(Cl)c3)N(C)S(=O)(=O)N2)CC1 (single isomer, unassigned) [Compound 477-ISOMER-A, methyl 4-[[5-[(3-chloro-4-fluoro-phenyl)carbamoyl]-6-methyl-1,1-dioxo-1,2,6-thiadiazinane-3-carbonyl]amino]piperidine-1-carboxylate] | > 7.30 | 
4 | COC(=O)N1CCC(NC(=O)C2CC(C(=O)Nc3ccc(F)c(Cl)c3)N(C)S(=O)(=O)N2)CC1 (single isomer, unassigned) [Compound 477-ISOMER-B, methyl 4-[[5-[(3-chloro-4-fluoro-phenyl)carbamoyl]-6-methyl-1,1-dioxo-1,2,6-thiadiazinane-3-carbonyl]amino]piperidine-1-carboxylate] |  | 5.00 to 7.00
5 | Cc1cc(CNC(=O)C2CC(C(=O)Nc3ccc(F)c(Cl)c3)N(C)S(=O)(=O)N2)n(C)n1 (single isomer, unassigned) [Compound 482-ISOMER-A, N3-(3-chloro-4-fluoro-phenyl)-N5-[(2,5-dimethylpyrazol-3-yl)methyl]-2-methyl-1,1-dioxo-1,2,6-thiadiazinane-3,5-dicarboxamide] | > 7.30 | 
6 | Cc1cc(CNC(=O)C2CC(C(=O)Nc3ccc(F)c(Cl)c3)N(C)S(=O)(=O)N2)n(C)n1 (single isomer, unassigned) [Compound 482-ISOMER-B, N3-(3-chloro-4-fluoro-phenyl)-N5-[(2,5-dimethylpyrazol-3-yl)methyl]-2-methyl-1,1-dioxo-1,2,6-thiadiazinane-3,5-dicarboxamide] |  | 5.00 to 7.00
7 | C[C@@H](NC(=O)C1CC(C(=O)Nc2ccc(F)c(Cl)c2)N(C)S(=O)(=O)N1)c1ccc(F)cc1 (single isomer, unassigned) [Compound 493-R] | > 7.30 | 
8 | Cc1ncc(CNC(=O)C2CC(C(=O)Nc3ccc(F)c(Cl)c3)N(C)S(=O)(=O)N2)s1 (single isomer, unassigned) [Compound 495-ISOMER-B, N3-(3-chloro-4-fluoro-phenyl)-2-methyl-N5-[(2-methylthiazol-5-yl)methyl]-1,1-dioxo-1,2,6-thiadiazinane-3,5-dicarboxamide] | > 7.30 | 
9 | CN1C(C(=O)Nc2ccc(F)c(Cl)c2)CC(C(=O)NCc2cnc(C(F)(F)F)s2)NS1(=O)=O (single isomer, unassigned) [Compound 498-ISOMER-A, N3-(3-chloro-4-fluoro-phenyl)-2-methyl-1,1-dioxo-N5-[[2-(trifluoromethyl)thiazol-5-yl]methyl]-1,2,6-thiadiazinane-3,5-dicarboxamide] | 5.00 to 7.00 | 
10 | CN1C(C(=O)Nc2ccc(F)c(Cl)c2)CC(C(=O)NCc2cnc(C(F)(F)F)s2)NS1(=O)=O (single isomer, unassigned) [Compound 498-ISOMER-B, N3-(3-chloro-4-fluoro-phenyl)-2-methyl-1,1-dioxo-N5-[[2-(trifluoromethyl)thiazol-5-yl]methyl]-1,2,6-thiadiazinane-3,5-dicarboxamide] |  | 7.00 to 7.30
11 | Cc1csc(CNC(=O)C2CC(C(=O)Nc3ccc(F)c(Cl)c3)N(C)S(=O)(=O)N2)n1 (single isomer, unassigned) [Compound 686-ISOMER-A, N3-(3-chloro-4-fluoro-phenyl)-2-methyl-N5-[(4-methylthiazol-2-yl)methyl]-1,1-dioxo-1,2,6-thiadiazinane-3,5-dicarboxamide] | 5.00 to 7.00 | 
